Test results from PMC12192727, “Strategies to Develop Na,K-ATPase-α4 Inhibitors as Male Contraceptives” (International Journal of Molecular Sciences, 2025).
“Also recorded” adds a separate entry of the source. Where two headings read alike, the source gives them in different places.

How the values were obtained:
rat hepatocytes = assay: Metabolic stability in rat hepatocytes; type: in vitro ADME
Procedure: (§1) The in vitro metabolic half-life (t1/2) is calculated using the slope of the log−linear regression from the percentage of the parent compound remaining versus the time relationship (κ). The experimental details are reported in the Supporting Information (Tables S6 and S7).

[1] = Metabolic stability in rat hepatocytes; type: in vitro ADME; conditions: rat hepatocytes
Procedure: as §1

Caco-2 cells = assay: Caco-2 cell permeability; type: in vitro ADME, human; conditions: Caco-2 cell line
Procedure: The in vitro permeability and potential to be transported by P-gp (P-glycoprotein) were determined in a Caco-2 or MDCK cell line. Values are reported for a mass recovery > 60%. The efflux ratio was determined as follows: P^app(B-A)/Papp(A-B). The experimental details are reported in the Supporting Information (Tables S2–S5).
The recovery can be determined using the following equation:
Recovery%=(VA×[drug]acceptor+VD×[drug]donor)/(VD×[drug]initial, donor)
Where VA is the volume (in mL) in the acceptor well (0.235 mL for Ap→Bl flux, and 0.075 mL for
Bl→Ap), VD is the volume (in mL) in the donor well (0.075 mL for Ap→Bl flux, and 0.235 mL for
The leakage of Lucifer Yellow, in unit of percentage (%), can be calculated using the following
%LY leakage = 100×[LY]acceptor×0.3/([LY]donor×0.1+[LY]acceptor×0.3)
LY leakage of <1% is acceptable to indicate the well-qualified MDCK/ Caco-2 monolayer.
Table S5 . The Assessment of Caco-2 Cell Monolayer Integrity
The apparent permeability coefficient (Papp), Efflux ratio (ER), recovery percentage, and LY leakage percentage can be
calculated for Caco-2 Cell drug transport assays using the above equations. […]

mouse sperm = assay: Mouse sperm total motility in vitro (CASA); type: cell-based; conditions: for Emax: Mus musculus, Sperm, 1 h, nanomolar range concentration, read-out: Maximal Motility Inhibition (%)
Procedure: To characterize the SAR of these compounds, we first evaluated their effects on total sperm motility in vitro. Sperm isolated from the cauda epididymis of mice were incubated with the test compounds in modified Whitten’s medium under non-capacitating conditions. Motility was assessed using a computer-assisted sperm analysis (CASA) system.
All experimental protocols involving animals used in this work were approved by the University of Kansas Medical Center Institutional Animal Care and Use Committee (ACUP number: 22-09-26, 10/2022). C57BL/6 mice were purchased from Harlan (Indianapolis, IN, USA). Spermatozoa were isolated from the cauda of adult mouse epididymis in Whitten’s medium, containing 100 mM NaCl, 4.7 mM KCl, 1.2 mM KH2PO4, 1.2 mM MgSO4, 5.5 mM glucose, 0.8 mM pyruvic acid, 4.8 mM lactic acid, and 40 mM Hepes, as previously described.
Spermatozoa (1 × 10^6 cells) were incubated at 37 °C in 100 μL of Whitten’s medium, with the addition of 1.7 mM CaCl2 and in the absence and presence of different amounts of the tested compounds for 60 min. Then, cells were labeled with the fluorescent nucleic acid stain SYTO 21, which allows for the tracking of the movement of the cell head. After 1 min of incubation with the dye, 5.5 μL aliquots from each sample were taken and placed into a glass cell chamber (Leja Products B.V., Nieuw-Vennep, The Netherlands). Sperm were maintained at 37 °C on a heated platform and viewed with an Olympus BX51 microscope (Olympus, Center Valley, PA, USA) through a 20× phase objective. Images of the moving sperm were captured using a CCD camera. Samples were analyzed by CASA using the Minitube SpermVision Digital Semen Evaluation system (version 3.5; Penetrating Innovations, Verona, WI, USA). An average of 200 cells/field were captured, at a rate of 30 frames per field, and a total of 10 fields in each sample were analyzed. Total sperm motility was obtained from sperm maintained in a non-capacitating medium, while for assessing the hyperactive pattern of motility, typical of sperm capacitation, cells were incubated in Whitten’s medium with the addition of 1.7 mM CaCl2, 25 mM sodium bicarbonate, and 0.5% bovine serum albumin.
(§2) Figure 2 Effect of simplified steroidal analogs on mouse sperm total motility. Sperm was isolated from the cauda epididymis and treated in the absence and presence of the indicated concentrations of each compound. After one hour of incubation, sperm motility was determined by CASA. Values are expressed as the mean ± SEM of three determinations.
as §2, with “4” for “2”, “non-steroidal small compounds” for “simplified steroidal analogs”, “1 h” for “one hour”

[2] = test system: Salmonella typhimurium strains TA98 and TA100; assay: Mini Ames test; type: cell-based; conditions: with and without S9
Procedure: The mutagenic potential of 45 was evaluated using the Mini Ames test, which measures reverse mutations at the histidine locus in Salmonella typhimurium strains TA98 and TA100. The assay was conducted with and without exogenous metabolic activation (β-naphthoflavone/phenobarbital-induced rat liver S9). The experimental details are reported in the Supporting Information).

mouse epididymal sperm = assay: Reversibility of effect on sperm motility after washing; type: cell-based; conditions: after washing the cells with fresh medium
Procedure: An important goal for the development of agents to be used for contraception is to assess the reversibility of their effect on sperm. To achieve this, we treated mouse sperm in the absence and presence of either 13 or 45 and measured epididymal sperm motility before and after washing the cells with fresh medium.
Mouse epididymal sperm were treated in the absence or presence of compounds 13 or 45 for one hour in Whitten’s medium. After an initial measurement of sperm motility using CASA, the sperm was washed by centrifugating the sample at 300× g for 3 min and resuspension in fresh Whitten’s medium. Then, sperm motility was determined again using CASA for the different times and for up to 180 min.
Figure 7 Reversibility of the effect of compounds 13 and 45. Mouse epididymal sperm were treated in the absence (untreated control) or presence of 13 (A) or 45 (B) for one hour. Then, the sperm was washed, and motility was measured before and after washing the cells using CASA. Sperm movement was followed during the indicated times. Values are expressed as the mean ± SEM of three determinations. Samples treated with 13 and 45 were statistically different from the untreated controls, with p < 0.05.

[3] = simplified steroid analogs, mouse sperm motility

CC12CCC(=O)C=C1CCCC2n1cc(-c2ccccc2)nn1 (stereo not shown) [Compound 45, 4a-Methyl-5-(4-phenyl-1H-1,2,3-triazol-1-yl)-4,4a,5,6,7,8-hexahydronaphthalen-2(3H)-one]
Remaining Percentage (%) (rat hepatocytes; rat boiled hepatocytes, 0 min): 100.00%
Remaining Percentage (%) (rat hepatocytes; rat boiled hepatocytes, 15 min): 101.65%
Remaining Percentage (%) (rat hepatocytes; rat boiled hepatocytes, 30 min): 104.87%
Remaining Percentage (%) (rat hepatocytes; rat boiled hepatocytes, 60 min): 104.47%
Remaining Percentage (%) (rat hepatocytes; rat boiled hepatocytes, 90 min): 104.04%
Remaining Percentage (%) (rat hepatocytes; rat boiled hepatocytes, 120 min): 104.50%
Hepatic Extraction Ratio (E) (rat hepatocytes; rat hepatocytes): 0.86
Predicted hepatic CL (rat hepatocytes; rat hepatocytes): 47.44 mL/min/kg
Remaining Percentage (%) (rat hepatocytes; rat hepatocytes, 0 min): 100.00%
Remaining Percentage (%) (rat hepatocytes; rat hepatocytes, 15 min): 51.55%
Remaining Percentage (%) (rat hepatocytes; rat hepatocytes, 30 min): 26.35%
Remaining Percentage (%) (rat hepatocytes; rat hepatocytes, 60 min): 9.77%
Remaining Percentage (%) (rat hepatocytes; rat hepatocytes, 90 min): 3.36%
Remaining Percentage (%) (rat hepatocytes; rat hepatocytes, 120 min): 1.25%
Metabolic Stability in Hepatocytes (60 min), compound remaining (rat hepatocytes; rat, 60 min): 10%
hepatocyte CLint at 1 μM ([1]; read-out: In vitro Clint): 72.2 µL/min/1e6 cells
half-life at 1 µM ([1]; rat, hepatocytes, read-out: In vitro T1/2): 19.2 min
CLint scaled at 1 µM ([1]; rat, hepatocytes, read-out: Scale-up Clint): 338 mL/min/kg
Permeability Papp (A-B) (Caco-2 cells): good
Emax (mouse sperm; non-steroidal small molecules, mouse sperm total motility): ~50%
IC50 (mouse sperm; non-steroidal small molecules, mouse sperm motility): 0.048 nM
Mini Ames [2]: Mini Ames ^e: negative
Reversibility of effect on sperm motility (mouse epididymal sperm): maintained over time; also recorded: not reversible

C[C@]12CC[C@H]3[C@@H](CC=C4C[C@@H](O)CC[C@@]43C)[C@@H]1CC[C@@H]2c1cn(Cc2ccccc2)nn1 [Compound 13, (3S,8S,9S,10R,13S,14S,17S)-17-(1-Benzyl-1H-1,2,3-triazol-4-yl)-10,13-dimethyl-2,3,4,7,8,9,10,11,12,13,14,15,16,17-tetradecahydro-1H-cyclopenta[a]phenanthren-3-ol]
Emax (mouse sperm; simplified steroid analogs, mouse sperm total motility): 41%
Shape of inhibitory dose response on sperm motility (mouse sperm; mouse sperm total motility): monotonic inhibitory response
IC50 (mouse sperm; [3]): 0.024 nM
IC50 (pM) (mouse sperm; [3]): sub-nanomolar range
Reversibility of effect on sperm motility (mouse epididymal sperm): maintained over time; also recorded: not reversible
